Measured values published in patent US11510886B2, “Metformin amino acid compounds and methods of using the same” (Laboratorios Silancs S.A. DE C.V., priority 2016, dated 2022).
Counter-ions that a name gives are not always drawn.

Key:
L1 adipocytes = assay: Inflammation markers in L1 adipocytes treated with palmitate (RT-qPCR); assay type: cell-based, Mice; details: palmitate 500 μM, 10 mM, 24 hours (FIG. 79)
Description: FIG. 79. […] Differentiated L1 adipocytes (cells) were treated for 24 hours with palmitate (500 μM), either in the presence or in the absence of SLN1 or SLN10 (10 mM). Subsequently, the relative expression of inflammation markers was analyzed by RT and qPCR, using HPRT-1 as a normalizer and as a reference for expression levels of non-treated cells (MCP-1 and IL-12), and for those treated only with palmitate (proIL-1β, TNFα, iNOS, IL-6). Briefly, once finished, culture media treatments were collected for subsequent analysis, cells were washed with PBS, and RNA was extracted (illustra RNAspin Mini, GE Healthcare) and retro-transcribed (High Capacity cDNA Reverse Transcription Kit, Life Technologies); then, the genes under study were analyzed by using a quantitative PCR with specific probes (TaqMan® Gene Expression Assays, Life Technologies), estimating the relative quantification (RQ) with the ΔΔ Ct method.
Palmitate is a saturated fatty acid that simulates an experimental obese state. It can be used as a pro-inflammatory stimulant for cytokines such as proIL-1β, TNFα, INOS, IL-6, MCP-1, and IL-12. Adipocytes cultured in the absence or presence of palmitate were treated with SLN1 or SLN10, and the expression of inflammation markers was determined by quantitative RT-PCR (FIG. 79).

RAW264.7 macrophages = assay: GPBP and pro-IL-1β expression in stimulated RAW264.7 macrophages; assay type: cell-based
Description: FIG. 87. […] RAW264.7 macrophages cultured in DMEM, supplemented with 10% FBS and antibiotics, were treated with the indicated concentrations of either SLN1, SLN10 for 2 hours, after which LPS (1 μg/mL) was added to cultures. After incubating for 16 hours, the relative expression quantification (RQ) for GPBP was analyzed by RT-qPCR, using HPRT-1 as a normalizer and non-stimulated cells (cells) as a reference point.
FIG. 88. […] RAW264.7 macrophages were treated as shown in FIG. 87 and analyzed by flow cytometry, using for sample processing the Cytofix/Cytoperm (BD) kit, according to the manufacturer's instructions, as well as specific antibodies against GPBP (N27) and pro-IL-1β, conjugated with FITC and phycoerythrin (PE), correspondingly. The intensity of fluorescence (IF) emission median value is shown in arbitrary units (a.u.) for each of the series. Non-treated cells were used as a reference point and their corresponding isotype controls were carried out. The median is usually used in fluorescence quantitative studies to minimize the influence of extreme values that may distort the real mean value. Isotype controls were carried out to eliminate background, caused by nonspecific fluorescence; nonspecific antibodies from the same isotype of those used to detect GPBP and pro-IL-1β were used. […]

[1] = Metformin association with lysine in aqueous solution (1H NMR titration); assay type: physicochemical; details: 1×PBS, pH 7.5, WINEQNMR2
Description: Specifically, 500 μL of a 10 mM lysine solution in buffer […] were introduced in an NMR tube, and the pH was adjusted to 7.5; moreover, […] of deuterated methanol was added, and the NMR proton spectrum was recorded (^1H). […] Increasing amounts of the metformin dissolution were added to the amino acid dissolution, and the ^1H NMR spectrum was recorded after each addition until reaching 20 equivalents.
The alpha proton signal of lysine (triplet to 3.76 ppm, FIG. 100) first shifted to lower […] and then to higher values. […] The complexation constant was calculated to be 828±42 (FIG. 101).

[2] = system: GPBP, LKB1/STRADα/MO25, AMPK, AS160; assay: In vitro phosphorylation of GPBP with LKB1 complex, AMPK and AS160; details: LKB1 complex without GPBP
in vivo = details: female, Sprague Dawley, rat, plasma, po, 250 mg/kg

For metformin lysinate, the “attenuation of inflammatory response of adipocytes stimulated with palmitate” value (L1 adipocytes) was “much more effective”, the “GPBP secretion induced by LPS and IC” value (RAW264.7 macrophages; FIG. 90) was “less ability to reduce GPBP secretion” and the “induced expression of GPBP” value (RAW264.7 macrophages; LPS or LPS and IFN-γ, flow cytometry (FIGS. 88, 89)) was “more efficiently inhibited by SLN10”. The complexation constant [1] was 828±42 and the “LKB1 autophosphorylation and STRADα phosphorylation” value [2] was “trigger a discrete LKB1 autophosphorylation”.
`CN(C)C(=N)N=C(N)N` [Metformin hydrochloride, metformin hydrochloride, reference compound] showed an AUC(0-t) (in vivo) of 82000 ng·h/mL, a Cmax (in vivo) of 16300 ng/mL and a Tmax (in vivo) of 30 min. It also gave a concentration at 0.5 h (in vivo) of 16300 ± 5100 ng/mL, a concentration at 1 h (in vivo) of 14800 ± 5070 ng/mL and a concentration at 2 h (in vivo) of 11900 ± 3240 ng/mL. The concentration at 4 h (in vivo) was 6830 ± 1650 ng/mL, the concentration at 8 h (in vivo) was 3140 ± 1050 ng/mL and the concentration at 24 h (in vivo) was 190 ± 100 ng/mL.
